The subject of data set [1] is MCF7. The data set can be described thus: Phototoxicity against human MCF7 cells assessed as inhibition of cell viability incubated with compound for 2 hrs followed by irradiation with 0.92 mW cm'-2 light and measured after overnight incubation by CellTiter Blue assay. Format: functional, cell-based. As to conditions: MCF7, light or radiation study; call rule not given here. On the technique in general: Alamar Blue is a resazurin reagent that responds to reducing activity.

A short description of data set [2]: Time dependent drug uptake in human MDA-MB-231 cells at 10 uM incubated up to 24 hrs by spectrofluorometric analysis. The format is ADME, cell-based. As to conditions: mda-mb-231, 24 h.
In data set [3] the test system is MCF7. Put plainly: Dark cytotoxicity against human MCF7 cells assessed as inhibition of cell viability incubated for 24 hrs by CellTiter Blue assay. As to conditions: MCF7, 24 h. Format: cell-based.
Data set [4] relates to MDA-MB-231. Put plainly: Dark cytotoxicity against human MDA-MB-231 cells assessed as inhibition of cell viability incubated for 24 hrs by CellTiter Blue assay. The format is cell-based. The conditions noted are these: MDA-MB-231, 24 h.
A short description of data set [5]: Drug uptake in human MDA-MB-231 cells at 1 uM incubated for 24 hrs by fluorescence imaging analysis. As to conditions: mda-mb-231, 24 h. Format: ADME, cell-based.
Data set [6] has as its system MDA-MB-231. Put plainly: Phototoxicity against human MDA-MB-231 cells assessed as inhibition of cell viability incubated with compound for 2 hrs followed by irradiation with 0.92 mW cm'-2 light and measured after overnight incubation by CellTiter Blue assay. The format is functional, cell-based. The conditions noted are these: MDA-MB-231, light or radiation study.
Data set [7] in a line: Time dependent drug uptake in human MCF7 cells at 10 uM incubated up to 24 hrs by spectrofluorometric analysis. Format: ADME, cell-based. As to conditions: mcf7, 24 h.
Data set [8] can be described thus: Drug uptake in human MCF7 cells at 1 uM incubated for 24 hrs by fluorescence imaging analysis. Format: ADME, cell-based. The conditions noted are these: mcf7, 24 h.
Data set [9] in a line: Drug uptake in athymic mouse xenografted with HNSCC cells at 0.1 mM administered iv measured up to 4 days post-drug administration by IVIS spectrum in vivo fluorescence imaging analysis. Format: ADME, organism-based. As to conditions: 96 h, 100 µM.

For orientation: IC50 means the concentration that inhibits the measured activity by half. As to `CN1CC2c3nc(c(-c4c(F)c(F)c(S[C@@H]5O[C@H](CO)[C@@H](O)[C@H](O)[C@H]5O)c(F)c4F)c4ccc([nH]4)c(-c4c(F)c(F)c(S[C@@H]5O[C@H](CO)[C@@H](O)[C@H](O)[C@H]5O)c(F)c4F)c4nc(c(-c5c(F)c(F)c(S[C@@H]6O[C@H](CO)[C@@H](O)[C@H](O)[C@H]6O)c(F)c5F)c5ccc([nH]5)c3-c3c(F)c(F)c(S[C@@H]5O[C@H](CO)[C@@H](O)[C@H](O)[C@H]5O)c(F)c3F)C=C4)C2C1` (some centres undefined), the IC50 was 1 to 2 µM with MCF7 [1], above 100 µM in the data set with MCF7 [3], above 100 µM with MDA-MB-231 [4] and 1 to 2 µM with MDA-MB-231 [6]. The Drug uptake entry in data set [2], in data set [5], in [7], in data set [8] and in data set [9] was “Active” throughout.

For the origin of these results see ChEMBL document CHEMBL4616604, “Comparing a thioglycosylated chlorin and phthalocyanine as potential theranostic agents” (Bioorg Med Chem, 2020).
